# Test results published in US5378846A, “1,2,3,4-tetrahydropyrrolo-[1,2-a]-pyrazine derivatives” (Russian-American Institute For New Drug Development, priority 1993, dated 1995).
# “Also recorded” adds a separate entry of the source. Read-outs that look alike come from different tables or passages of the source.
# Experiments:
# Acute toxicity in mice = settings: mouse, in vivo, ip, mice, i.p.
# Experimental: (§1) Compounds according to the present invention were checked for their influence on gross behaviour. The experiments described herein (Examples 11, 12, 13, 14, and 15) were carried out using outbred male mice weighing approximately 18-24 g. Each substance was administered intraperitoneally 45 min. before the experiment. Locomotor activity was estimated individually for each animal for 3 min. using an actometer `Era-1` (Russia).
# (§2) The compounds of the present invention were checked for acute toxicity in outbred male mice (18-22 g.). They were administered intraperitoneally and the lethality was estimated 24 hours later (Table 6). In the dose range of 500-1000 mg/kg i.p. Compound 1 caused death in 50% of the animals. Compound 1 is almost 5 times less toxic than other compounds.
# outbred male mice = assay: Acute toxicity in mice; settings: mouse, in vivo, ip
# Experimental: as §1, §2
# C57 B1/6 mice = assay: Open field test, C57 B1/6 mice; format: in vivo, male C57 B1/6 mice; settings: for Central activity / Crosses of Squires / Emotionality (N. of defec.) / Total locomotor activity / Vert. stands: C57 B1/6, i.p.
# Experimental: ESR indices were evaluated as changes in mice ambulations, defecations and motor activity in an "open field" test ([…]., Bull. Exp. Biol. […] Compound 1 was injected in different doses intraperitoneally 45 min. before test.
# [1] = system: aggressive behavior in mice; assay: Antiaggressive activity (threshold of aggressive behavior, electrified floor); format: in vivo, outbred male mice
# Experimental: as §1
# The effect of Compound 1 on the threshold of the aggressive behavior was determined in the experiment on outbred mice (R. Tedesci et al., J. Pharmacol. Exp. Ther., 125, 28-34, (1959), which is incorporated herein by reference). The paired mice were placed on the electrified floor. The strength of the current, which provoked the fighting, was recorded.
# [2] = system: convulsive effect of pentylenetetrazole in mice; assay: Convulsive effect of pentylenetetrazole; format: in vivo, outbred male mice
# Experimental: as §1
# The influence of Compound 1 on the latency of convulsions and on the duration of animals' lives after pentylenetetrazole (130 mg/kg subcutaneously) was studied in outbred mice.
# [3] = system: rat behavior in Vogel conflict test; assay: Vogel conflict test (anxiolytic activity, punished responses in water-deprived rats); format: in vivo, outbred male albino rats
# Excerpt: Compounds according to the present invention were checked for their anxiolytic activity. Behaviour suppressed by punishment is a very reliable indicator of the anxiolytic activity of drugs. A variant of the conflict situation test was used to reveal anxiety in water-deprived rats whose licking was suppressed by shock (see Vogel et al., Phychopharmacologia, 21, 1-7 (1971); J. E. Barrett in Animal Models in Psychopharmacology, Advances in Pharmacological Sciences, 1991; and Birkhauser Verlag, Basel, p. 37.52, Molodavkin et al., Exper. Clin. Pharmacol., 56, (1993), which are incorporated herein by reference).
# The experiments were carried out using outbred male albino rats (180-220 g). This experiment involved previous training of water-deprived rats to drink water from a trough. Next day electrical stimulation was given delivering 0.5 mA electric shocks through the trough and metal grid floor of the experimental chamber. A conflict situation was created by clashing motivations (survival and self defense). The degree of anxiolytic activity was estimated by the measurement of the amount of punished licks for 10 min. Each compound was administered intraperitoneally 45 min. before the conflict test.
# BALB/c mice = assay: Open field test, BALB/c mice; format: in vivo, male BALB/c mice; settings: for Central activity / Crosses of Squires / Emotionality (N. of defec.) / Total locomotor activity / Vert. stands: BALB/c, i.p.
# Experimental: The effects of Compound 1 on different emotional stress reactions (ESR) in male mice of C57 B1/6 and BALB/c strains were studied. ESR indices were evaluated as changes in mice ambulations, defecations and motor activity in an "open field" test (Seredenin S. B., Vedernikov, A. A., Bull. Exp. Biol. Med., 100, No. 7, 38-40 (1979), which is incorporated herein by reference). Compound 1 was injected in different doses intraperitoneally 45 min. before test.
# motor behavior in mice = assay: Rotating rod test (coordination of movements and myorelaxation); settings: for Disturbances according to rotating rod test, effect in %: mice
# Experimental: The influence of Compound 1 on the motor behavior was studied according to a "rotating rod" test and a "horizontal wire" test in outbred male mice (18-22 g). A rotating rod (2 cm diameter and 5 rpm speed) was used. Acquisition was defined as the ability to remain on the rotating rod for 2 min. Each animal had two trials. According to the "horizontal wire" test a mouse was hung on the wire (0.3 cm. diameter, wire was fixed horizontally 40 cm above the floor) by the forepaws. The ability to pull the hind legs up to the wire for 2 min. was a criterion of test performance.
# [4] = 10 mg/kg + pentylenetetrazole 130 mg/kg s.c.
smiles,measurement,setting,value
"O=C(O)CCC(=O)O.c1cc2n(c1)CCNC2 [Compound 1, 1,2,3,4-tetrahydropyrrolo-[1,2-a]-pyrazine hydrosuccinate]",LD50 at 24 h,"Acute toxicity in mice; 24 hours, read-out: Dose range causing death in 50% of the animals",500 to 1000 mg/kg
same,LD50 at 24 h,"Acute toxicity in mice; lethality 24 hours later, Table 6 (range in brackets beside), read-out: LD50",1540 mg/kg
same,Times less toxic than other compounds,outbred male mice,~5 times
same,"Open field behavior of C57 B1/6 mice, in words",C57 B1/6 mice; 5 mg/kg i.p.,caused the reduction of total ambulations inhibiting central and vertical activity. The number of defecations was not changed
same,Central activity,C57 B1/6 mice; 0.1 mg/kg,24.2 ± 5.2
same,Crosses of Squires,C57 B1/6 mice; 0.1 mg/kg,74.6 ± 7.6
same,Emotionality (N. of defec.),C57 B1/6 mice; 0.1 mg/kg,1.0 ± 0.53
same,Total locomotor activity,C57 B1/6 mice; 0.1 mg/kg,114.6 ± 12.1
same,Vert. stands,C57 B1/6 mice; 0.1 mg/kg,15.8 ± 2.5
same,Central activity,C57 B1/6 mice; 1.0 mg/kg,29.9 ± 5.2
same,Crosses of Squires,C57 B1/6 mice; 1.0 mg/kg,65.6 ± 5.5
same,Emotionality (N. of defec.),C57 B1/6 mice; 1.0 mg/kg,0.8 ± 0.39
same,Total locomotor activity,C57 B1/6 mice; 1.0 mg/kg,110.6 ± 10.9
same,Vert. stands,C57 B1/6 mice; 1.0 mg/kg,15.1 ± 2.0
same,Central activity,C57 B1/6 mice; 5.0 mg/kg,11.1 ± 1.6
same,Crosses of Squires,C57 B1/6 mice; 5.0 mg/kg,51.7 ± 5.3
same,Emotionality (N. of defec.),C57 B1/6 mice; 5.0 mg/kg,0.22 ± 0.22
same,Total locomotor activity,C57 B1/6 mice; 5.0 mg/kg,71.7 ± 6.9
same,Vert. stands,C57 B1/6 mice; 5.0 mg/kg,7.8 ± 1.5
same,"Sedation in C57B1/6 mice, in words","C57 B1/6 mice; anxiolytic dose range, open field test",does not cause sedation in C57B1/6 mice; also recorded: anxiolytic effect in BALB/c mice does not coincide with sedative effect in C57B 1/6 mice
same,"Effect on threshold of aggressive response, in words",[1],increase the threshold of aggressive response; also recorded: able to enhance the threshold of aggressive response
same,Aggression threshold,[1]; 0.5 mg/kg i.p.,67.2 ± 1.7 V
same,Aggression threshold,[1]; 5.0 mg/kg i.p.,90.8 ± 4.9 V
same,Duration of animal survival,[2]; [4],7.3 ± 1.0 min
same,Latency of clon.,[2]; [4],3.35 ± 0.7 min
same,Latency of ton.,[2]; [4],7.06 ± 1.0 min
same,"Effect on latency of convulsions and animal survival after pentylenetetrazole, in words",[2]; pentylenetetrazole 130 mg/kg subcutaneously,increase the duration of animals' survival after pentylenetetrazole injection; also recorded: causes prolongation of the latency of convulsions and of animal survival after pentylenetetrazole
same,"Anxiolytic effectiveness after chronic administration, in words",[3]; 5 mg/kg i.p. once daily for 40 days,anxiolytic effectiveness of Compound 1 is preserved after its chronic administration
same,The number of punished responses,"[3]; rat, 2.0 mg/kg i.p., 45 min before test, Table 1",43.52 ± 14.8
same,The number of punished responses,"[3]; rat, acute administration, 5 mg/kg, Table 3",49.52 ± 15.91
same,The number of punished responses,"[3]; rat, chronic administration, 5 mg/kg i.p. once daily for 40 days, Table 3",85.8 ± 6.7
same,The number of punished responses,"[3]; rat, i.p., dose 0.5 mg/kg, Table 2",49.88 ± 19.27
same,The number of punished responses,"[3]; rat, i.p., dose 1.0 mg/kg, Table 2",41.29 ± 16.71
same,The number of punished responses,"[3]; rat, i.p., dose 2.0 mg/kg, Table 2",43.52 ± 14.8
same,The number of punished responses,"[3]; rat, i.p., dose 5.0 mg/kg, Table 2",29.88 ± 13.13
same,The number of punished responses,"[3]; rat, i.p., dose 10.0 mg/kg, Table 2",30.88 ± 10.93
same,"Anxiolytic effect in Vogel conflict test, in words","[3]; rat, i.p., Compound 1 vs diazepam: 0.5-2 mg/kg vs 1 and 2 mg/kg",increase the amount of punished responses in a Vogel conflict test after acute and chronic administration; also recorded: displayed more anxiolytic effect than diazepam
same,"Open field behavior of BALB/c mice, in words",BALB/c mice; 2.5 and 5.0 mg/kg i.p.,"produces activating (anxiolytic) effect in initially low active BALB/c mice; also recorded: caused ambulation increase elevating the central activity, and defecation decrease in BALB/c mice"
same,Central activity,BALB/c mice; 0.1 mg/kg,0.0
same,Crosses of Squires,BALB/c mice; 0.1 mg/kg,21.2 ± 5.8
same,Emotionality (N. of defec.),BALB/c mice; 0.1 mg/kg,0.5 ± 0.17
same,Total locomotor activity,BALB/c mice; 0.1 mg/kg,21.2 ± 5.8
same,Vert. stands,BALB/c mice; 0.1 mg/kg,0.0
same,Central activity,BALB/c mice; 1.0 mg/kg,0.4 ± 0.3
same,Crosses of Squires,BALB/c mice; 1.0 mg/kg,25.6 ± 4.6
same,Emotionality (N. of defec.),BALB/c mice; 1.0 mg/kg,1.2 ± 0.13
same,Total locomotor activity,BALB/c mice; 1.0 mg/kg,26.1 ± 4.6
same,Vert. stands,BALB/c mice; 1.0 mg/kg,0.1 ± 0.1
same,Central activity,BALB/c mice; 5.0 mg/kg,2.4 ± 0.9
same,Crosses of Squires,BALB/c mice; 5.0 mg/kg,29.8 ± 5.2
same,Emotionality (N. of defec.),BALB/c mice; 5.0 mg/kg,0.45 ± 0.11
same,Total locomotor activity,BALB/c mice; 5.0 mg/kg,33.0 ± 6.1
same,Vert. stands,BALB/c mice; 5.0 mg/kg,0.9 ± 0.5
same,"Disturbances according to rotating rod test, effect in %",motor behavior in mice; dose 5.0,0%
same,"Disturbances according to rotating rod test, effect in %",motor behavior in mice; dose 10.0,0%
same,"Disturbances according to rotating rod test, effect in %",motor behavior in mice; dose 20.0,0%
same,"Disturbances according to rotating rod test, effect in %",motor behavior in mice; dose 40.0,0%
same,"Disturbances according to rotating rod test, effect in %",motor behavior in mice; dose 80.0,0%
same,"Disturbances according to rotating rod test, effect in %",motor behavior in mice; dose 250.0,0%
same,"Motor behavior disturbance and myorelaxation, in words","motor behavior in mice; rotating rod and horizontal wire tests, Compound 1 5-250 mg/kg",does not manifest amnestic and myorelaxant effects; also recorded: fails to evoke disturbances in the coordination of movements and myorelaxation
